# Experimental data published in ChEMBL document CHEMBL1136839, “3,4-Disubstituted isothiazoles: novel potent inhibitors of VEGF receptors 1 and 2” (Bioorg Med Chem Lett, 2009).
# What was measured:
# [1] = biological target: Hepatocyte growth factor receptor (Homo sapiens) (UniProt P08581); assay: Inhibition of cMET at 10 uM by HTRF assay
# [2] = biological target: T1, Vascular endothelial growth factor receptor 2 (Homo sapiens, UniProt P35968); assay: Inhibition of VEGFR2 assessed as blockade of pGAT-biotin phosphorylation in presence of 2 uM ATP by HTRF assay
# [3] = biological target: Cyclin-dependent kinase 2 (Homo sapiens) (UniProt P24941); assay: Inhibition of CDK2 at 10 uM by HTRF assay
# [4] = biological target: Macrophage-stimulating protein receptor (Homo sapiens) (UniProt Q04912); assay: Inhibition of Ron at 10 uM by HTRF assay
# [5] = biological target: Insulin receptor (Homo sapiens) (UniProt P06213); assay: Inhibition of InR at 10 uM by HTRF assay
# [6] = biological target: Proto-oncogene tyrosine-protein kinase Src (Homo sapiens) (UniProt P12931); assay: Inhibition of Src at 10 uM by HTRF assay
# Sequence of Proto-oncogene tyrosine-protein kinase Src (Homo sapiens) (P12931 2-536 limits assumed): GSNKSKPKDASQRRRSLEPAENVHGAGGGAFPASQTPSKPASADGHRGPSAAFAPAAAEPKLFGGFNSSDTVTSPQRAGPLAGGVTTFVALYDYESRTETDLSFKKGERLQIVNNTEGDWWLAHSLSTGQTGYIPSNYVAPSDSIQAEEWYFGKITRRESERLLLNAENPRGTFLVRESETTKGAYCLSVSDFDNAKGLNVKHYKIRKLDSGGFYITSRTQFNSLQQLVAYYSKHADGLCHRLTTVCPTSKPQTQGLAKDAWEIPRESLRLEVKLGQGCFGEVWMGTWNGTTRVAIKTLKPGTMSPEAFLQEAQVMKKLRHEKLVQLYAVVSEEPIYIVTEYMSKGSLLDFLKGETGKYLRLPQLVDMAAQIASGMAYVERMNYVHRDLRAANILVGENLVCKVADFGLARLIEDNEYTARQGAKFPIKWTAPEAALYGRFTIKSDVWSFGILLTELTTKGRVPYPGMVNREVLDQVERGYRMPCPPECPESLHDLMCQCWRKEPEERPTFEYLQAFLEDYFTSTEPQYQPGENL
# [7] = biological target: Bcr/Abl fusion protein (Homo sapiens) (UniProt P00519+P11274); assay: Inhibition of bcr-Abl at 10 uM by HTRF assay; assay type: protein assay
# Sequence of Bcr/Abl fusion protein (Homo sapiens) (P00519 whole entry, looked up, the tested form may be a part): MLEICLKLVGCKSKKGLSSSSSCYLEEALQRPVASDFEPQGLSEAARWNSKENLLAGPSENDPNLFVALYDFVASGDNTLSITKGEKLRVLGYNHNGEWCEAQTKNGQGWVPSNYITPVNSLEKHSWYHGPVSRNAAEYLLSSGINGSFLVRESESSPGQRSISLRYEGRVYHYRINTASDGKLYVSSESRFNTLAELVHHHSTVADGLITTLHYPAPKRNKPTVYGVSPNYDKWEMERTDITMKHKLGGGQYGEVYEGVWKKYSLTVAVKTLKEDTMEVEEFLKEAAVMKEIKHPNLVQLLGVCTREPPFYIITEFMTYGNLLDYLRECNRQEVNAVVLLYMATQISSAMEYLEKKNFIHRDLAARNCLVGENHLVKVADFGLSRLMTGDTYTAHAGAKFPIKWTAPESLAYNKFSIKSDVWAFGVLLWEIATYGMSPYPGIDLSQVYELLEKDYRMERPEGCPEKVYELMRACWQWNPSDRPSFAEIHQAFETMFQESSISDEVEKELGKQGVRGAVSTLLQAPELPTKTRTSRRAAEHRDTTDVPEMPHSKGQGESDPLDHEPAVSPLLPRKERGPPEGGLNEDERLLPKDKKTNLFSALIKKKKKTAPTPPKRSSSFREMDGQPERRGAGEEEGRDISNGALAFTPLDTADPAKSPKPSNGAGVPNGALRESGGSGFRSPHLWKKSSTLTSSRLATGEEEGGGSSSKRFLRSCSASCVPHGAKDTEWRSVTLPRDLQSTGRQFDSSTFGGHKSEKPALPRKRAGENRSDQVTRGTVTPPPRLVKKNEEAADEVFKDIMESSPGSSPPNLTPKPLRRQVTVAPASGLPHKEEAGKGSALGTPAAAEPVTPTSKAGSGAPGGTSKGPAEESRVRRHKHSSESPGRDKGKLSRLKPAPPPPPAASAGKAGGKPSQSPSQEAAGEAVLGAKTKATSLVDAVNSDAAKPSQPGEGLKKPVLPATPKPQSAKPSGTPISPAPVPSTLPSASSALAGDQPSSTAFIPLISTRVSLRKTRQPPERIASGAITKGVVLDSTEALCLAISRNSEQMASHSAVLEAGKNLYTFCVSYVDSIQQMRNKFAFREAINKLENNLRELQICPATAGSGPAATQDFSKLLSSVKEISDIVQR
# Sequence of Bcr/Abl fusion protein (Homo sapiens) (P11274 whole entry, looked up, the tested form may be a part): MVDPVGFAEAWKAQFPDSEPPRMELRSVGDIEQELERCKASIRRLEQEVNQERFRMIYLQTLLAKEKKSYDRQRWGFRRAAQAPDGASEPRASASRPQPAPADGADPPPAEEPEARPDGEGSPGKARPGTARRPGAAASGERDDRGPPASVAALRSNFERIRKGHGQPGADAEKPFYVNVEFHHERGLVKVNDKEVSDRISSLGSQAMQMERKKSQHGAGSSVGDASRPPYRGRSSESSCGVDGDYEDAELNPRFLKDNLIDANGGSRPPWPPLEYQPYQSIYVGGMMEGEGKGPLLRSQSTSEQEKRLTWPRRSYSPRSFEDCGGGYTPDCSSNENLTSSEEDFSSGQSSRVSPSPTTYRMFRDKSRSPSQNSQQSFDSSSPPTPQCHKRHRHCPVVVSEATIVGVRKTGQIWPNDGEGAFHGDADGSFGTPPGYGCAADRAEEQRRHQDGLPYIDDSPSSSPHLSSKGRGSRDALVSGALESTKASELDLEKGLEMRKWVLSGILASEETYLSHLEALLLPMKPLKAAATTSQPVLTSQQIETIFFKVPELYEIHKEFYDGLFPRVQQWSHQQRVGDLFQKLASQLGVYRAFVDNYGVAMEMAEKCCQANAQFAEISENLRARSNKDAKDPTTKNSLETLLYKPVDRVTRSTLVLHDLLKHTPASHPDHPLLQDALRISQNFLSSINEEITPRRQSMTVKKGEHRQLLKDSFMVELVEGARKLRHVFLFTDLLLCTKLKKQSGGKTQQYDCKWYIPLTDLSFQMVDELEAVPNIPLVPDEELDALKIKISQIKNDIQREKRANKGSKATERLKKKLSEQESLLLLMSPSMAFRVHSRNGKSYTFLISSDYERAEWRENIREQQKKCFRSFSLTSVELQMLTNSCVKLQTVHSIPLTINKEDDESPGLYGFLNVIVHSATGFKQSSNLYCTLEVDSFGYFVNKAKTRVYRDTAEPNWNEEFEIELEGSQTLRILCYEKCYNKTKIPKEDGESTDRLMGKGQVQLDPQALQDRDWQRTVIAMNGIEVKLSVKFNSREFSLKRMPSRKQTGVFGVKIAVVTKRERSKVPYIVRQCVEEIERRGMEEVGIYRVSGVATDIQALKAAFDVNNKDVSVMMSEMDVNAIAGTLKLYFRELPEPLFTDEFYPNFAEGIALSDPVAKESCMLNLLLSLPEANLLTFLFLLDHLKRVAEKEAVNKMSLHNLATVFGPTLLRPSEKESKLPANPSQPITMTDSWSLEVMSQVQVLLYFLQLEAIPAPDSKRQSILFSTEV
# [8] = biological target: Receptor tyrosine-protein kinase erbB-2 (Homo sapiens) (UniProt P04626); assay: Inhibition of ErbB2 at 10 uM by HTRF assay
# [9] = biological target: T2, Aurora kinase A (Homo sapiens) (UniProt O14965); assay: Inhibition of Aurora A at 10 uM by HTRF assay
# T2 sequence (whole entry): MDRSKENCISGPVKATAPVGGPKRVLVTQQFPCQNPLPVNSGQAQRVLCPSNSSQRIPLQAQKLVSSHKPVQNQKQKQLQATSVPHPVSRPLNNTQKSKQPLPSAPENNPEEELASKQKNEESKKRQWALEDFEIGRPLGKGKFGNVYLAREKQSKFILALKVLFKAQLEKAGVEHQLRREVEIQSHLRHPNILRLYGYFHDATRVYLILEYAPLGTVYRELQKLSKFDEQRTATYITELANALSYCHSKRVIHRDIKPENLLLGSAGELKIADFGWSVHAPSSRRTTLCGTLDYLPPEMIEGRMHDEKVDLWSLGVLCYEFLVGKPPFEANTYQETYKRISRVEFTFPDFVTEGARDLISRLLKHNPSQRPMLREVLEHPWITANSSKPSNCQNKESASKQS
# [10] = biological target: Fibroblast growth factor receptor 1 (Homo sapiens) (UniProt P11362); assay: Inhibition of FGFR1 at 10 uM by HTRF assay
# [11] = biological target: Glycogen synthase kinase-3 beta (Homo sapiens) (UniProt P49841); assay: Inhibition of GSK3-beta at 10 uM by HTRF assay
# Sequence of Glycogen synthase kinase-3 beta (Homo sapiens) (P49841 whole entry, looked up): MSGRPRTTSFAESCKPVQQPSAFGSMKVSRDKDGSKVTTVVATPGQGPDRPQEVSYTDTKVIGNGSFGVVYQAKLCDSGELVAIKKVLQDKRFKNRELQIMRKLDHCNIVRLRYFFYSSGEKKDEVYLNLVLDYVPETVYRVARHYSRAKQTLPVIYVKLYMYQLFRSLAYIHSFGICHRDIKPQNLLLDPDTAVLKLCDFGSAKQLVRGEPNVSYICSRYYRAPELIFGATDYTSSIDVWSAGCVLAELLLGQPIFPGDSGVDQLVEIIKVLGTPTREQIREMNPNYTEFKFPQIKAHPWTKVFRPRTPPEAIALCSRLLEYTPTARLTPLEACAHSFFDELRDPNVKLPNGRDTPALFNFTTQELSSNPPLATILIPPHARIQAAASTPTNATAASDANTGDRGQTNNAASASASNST
# [12] = biological target: Vascular endothelial growth factor receptor 1 (Homo sapiens, UniProt P17948); assay: Inhibition of VEGFR1 assessed as blockade of pGAT-biotin phosphorylation in presence of 2 uM ATP by HTRF assay
# [13] = biological target: Cyclin-dependent kinase 1 (Homo sapiens) (UniProt P06493); assay: Inhibition of CDK1 at 10 uM by HTRF assay
# Sequence of Cyclin-dependent kinase 1 (Homo sapiens) (P06493 whole entry, looked up): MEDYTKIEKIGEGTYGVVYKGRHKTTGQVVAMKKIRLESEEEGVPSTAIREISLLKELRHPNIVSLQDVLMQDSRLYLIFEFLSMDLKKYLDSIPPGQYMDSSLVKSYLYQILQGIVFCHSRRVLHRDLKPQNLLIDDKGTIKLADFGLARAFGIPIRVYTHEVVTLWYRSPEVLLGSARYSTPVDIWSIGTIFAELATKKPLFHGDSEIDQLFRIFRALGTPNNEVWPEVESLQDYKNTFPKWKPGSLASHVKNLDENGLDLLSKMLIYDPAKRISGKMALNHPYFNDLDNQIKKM
# [14] = biological target: Serine/threonine-protein kinase PLK1 (Homo sapiens) (UniProt P53350); assay: Inhibition of Plk1 at 10 uM by HTRF assay
# [15] = biological target: Receptor-type tyrosine-protein kinase FLT3 (Homo sapiens) (UniProt P36888); assay: Inhibition of Flt3 at 10 uM by HTRF assay
# [16] = biological target: Insulin-like growth factor 1 receptor (Homo sapiens) (UniProt P08069); assay: Inhibition of IGF1R at 10 uM by HTRF assay
# [17] = Inhibition of Bcr-Abl T315 mutant at 10 uM by HTRF assay
# [18] = biological target: Epidermal growth factor receptor (Homo sapiens) (UniProt P00533); assay: Inhibition of EGFR at 10 uM by HTRF assay
# Sequence of Epidermal growth factor receptor (Homo sapiens) (P00533 whole entry): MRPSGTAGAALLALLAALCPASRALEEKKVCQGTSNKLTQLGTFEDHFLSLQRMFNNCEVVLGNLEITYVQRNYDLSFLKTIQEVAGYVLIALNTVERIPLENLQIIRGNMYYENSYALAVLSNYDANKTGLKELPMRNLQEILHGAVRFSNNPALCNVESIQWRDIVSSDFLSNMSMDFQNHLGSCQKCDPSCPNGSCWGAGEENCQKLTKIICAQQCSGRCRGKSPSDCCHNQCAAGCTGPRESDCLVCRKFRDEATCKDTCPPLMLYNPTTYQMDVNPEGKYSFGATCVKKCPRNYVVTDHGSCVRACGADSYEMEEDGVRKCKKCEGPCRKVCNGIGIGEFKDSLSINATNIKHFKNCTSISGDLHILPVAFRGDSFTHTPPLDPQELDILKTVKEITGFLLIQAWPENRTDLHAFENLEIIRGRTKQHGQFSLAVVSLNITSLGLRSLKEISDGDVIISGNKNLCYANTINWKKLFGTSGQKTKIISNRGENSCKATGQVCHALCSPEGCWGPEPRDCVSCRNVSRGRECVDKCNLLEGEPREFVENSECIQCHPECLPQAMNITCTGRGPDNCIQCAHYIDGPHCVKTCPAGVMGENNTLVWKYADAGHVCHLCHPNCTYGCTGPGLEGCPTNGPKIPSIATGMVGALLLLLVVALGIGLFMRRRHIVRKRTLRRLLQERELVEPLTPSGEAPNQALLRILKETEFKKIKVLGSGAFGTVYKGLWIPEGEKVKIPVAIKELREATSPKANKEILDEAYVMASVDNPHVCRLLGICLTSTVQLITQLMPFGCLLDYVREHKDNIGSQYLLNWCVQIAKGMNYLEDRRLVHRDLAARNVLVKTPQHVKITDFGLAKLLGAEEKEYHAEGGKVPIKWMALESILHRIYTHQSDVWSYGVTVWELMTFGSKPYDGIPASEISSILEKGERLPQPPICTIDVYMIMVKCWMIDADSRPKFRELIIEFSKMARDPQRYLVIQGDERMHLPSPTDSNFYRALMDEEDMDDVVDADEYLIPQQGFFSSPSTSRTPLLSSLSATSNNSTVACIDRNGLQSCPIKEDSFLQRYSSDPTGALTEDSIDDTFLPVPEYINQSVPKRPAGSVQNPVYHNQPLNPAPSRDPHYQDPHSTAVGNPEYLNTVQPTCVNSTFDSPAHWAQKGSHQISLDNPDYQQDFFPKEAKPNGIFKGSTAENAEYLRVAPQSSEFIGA
# [19] = Inhibition of PKA at 10 uM by HTRF assay
# [20] = biological target: Aurora kinase B (Homo sapiens) (UniProt Q96GD4); assay: Inhibition of Aurora B at 10 uM by HTRF assay
# [21] = biological target: T1, Vascular endothelial growth factor receptor 2; assay: Inhibition of VEGFR2 expressed in HEK293 cells assessed as inhibition of receptor phosphorylation by ELISA; assay type: cell-based
Structure (SMILES),inhibition [1] [%],inhibition [3] [%],inhibition [4] [%],inhibition [5] [%],inhibition [6] [%],inhibition [7] [%],inhibition [8] [%],inhibition [10] [%],inhibition [11] [%],inhibition [13] [%],inhibition [15] [%],inhibition [16] [%],inhibition [17] [%],inhibition [18] [%],inhibition [19] [%],also measured
O=C(Nc1cccc(Br)c1)c1nscc1NCc1ccc2ccccc2n1,< 30,< 30,< 30,< 30,< 30,< 30,< 30,< 30,< 30,< 30,< 30,< 30,< 30,< 30,< 30,IC50 [2]: > 10000 nM; inhibition [9]: < 30%; IC50 [12]: > 10000 nM; inhibition [14]: < 30%; inhibition [20]: < 30%; IC50 [21]: > 10000 nM
O=C(Nc1ccc(C(F)(F)F)cc1)c1nscc1NCc1ccccn1,< 30,< 30,< 30,< 30,< 30,< 30,< 30,< 30,< 30,< 30,< 30,< 30,< 30,< 30,< 30,
O=C(Nc1cccc(C(F)(F)F)c1)c1nscc1NCc1cccnc1,< 30,< 30,< 30,< 30,< 30,< 30,< 30,< 30,< 30,< 30,< 30,< 30,< 30,< 30,< 30,
O=C(Nc1ccc(C(F)(F)F)cc1)c1nscc1NCc1cccnc1,< 30,< 30,< 30,< 30,< 30,< 30,< 30,< 30,< 30,< 30,< 30,< 30,< 30,< 30,< 30,
O=C(Nc1cccc(C(F)(F)F)c1)c1nscc1NCc1ccc(F)c(F)c1,< 30,< 30,< 30,< 30,< 30,< 30,< 30,< 30,< 30,< 30,< 30,< 30,< 30,< 30,< 30,
Cc1cc(NC(=O)c2nscc2NCc2ccncc2)ccc1C(F)(F)F,< 30,< 30,< 30,< 30,< 30,< 30,< 30,< 30,< 30,< 30,< 30,< 30,< 30,< 30,< 30,
Cc1ccc(NC(=O)c2nscc2NCc2ccncc2)c(F)c1,< 30,< 30,< 30,< 30,< 30,< 30,< 30,< 30,< 30,< 30,< 30,< 30,< 30,< 30,< 30,
O=C(Nc1cccc(Br)c1)c1nscc1NCc1cnoc1,< 30,< 30,< 30,< 30,< 30,< 30,< 30,< 30,< 30,< 30,< 30,< 30,< 30,< 30,< 30,

# Continued, in another order:
inhibition [1] [%],inhibition [3] [%],inhibition [4] [%],inhibition [5] [%],inhibition [6] [%],inhibition [7] [%],inhibition [8] [%],inhibition [10] [%],inhibition [11] [%],inhibition [13] [%],inhibition [15] [%],inhibition [16] [%],inhibition [17] [%],inhibition [18] [%],inhibition [19] [%],Structure (SMILES),also measured
< 30,< 30,< 30,< 30,< 30,< 30,< 30,< 30,< 30,< 30,< 30,< 30,< 30,< 30,< 30,O=C(Nc1ccc(Cl)c(Cl)c1)c1nscc1NCc1ccncc1,IC50 [2]: 670 nM; inhibition [9]: < 30%; IC50 [12]: 750 nM; inhibition [14]: < 30%; inhibition [20]: < 30%; IC50 [21]: 1110 nM
< 30,< 30,< 30,< 30,< 30,< 30,< 30,< 30,< 30,< 30,< 30,< 30,< 30,< 30,< 30,O=C(Nc1ccc(OC(F)(F)F)cc1)c1nscc1NCc1ccncc1,
< 30,< 30,< 30,< 30,< 30,< 30,< 30,< 30,< 30,< 30,< 30,< 30,< 30,< 30,< 30,CC(C)(C)c1ccc(NC(=O)c2nscc2NCc2ccncc2)cc1,
< 30,< 30,< 30,< 30,< 30,< 30,< 30,< 30,< 30,< 30,< 30,< 30,< 30,< 30,< 30,O=C(Nc1ccccc1Br)c1nscc1NCc1ccncc1,
< 30,< 30,< 30,< 30,< 30,< 30,< 30,< 30,< 30,< 30,< 30,< 30,< 30,< 30,< 30,O=C(Nc1ccc(C(F)(F)F)cc1)c1nscc1NCc1ccncc1,
< 30,< 30,< 30,< 30,< 30,< 30,< 30,< 30,< 30,< 30,< 30,< 30,< 30,< 30,< 30,O=C(Nc1ccc(Cl)cc1)c1nscc1NCc1ccncc1,
< 30,< 30,< 30,< 30,< 30,< 30,< 30,< 30,< 30,< 30,< 30,< 30,< 30,< 30,< 30,O=C(Nc1ccc2[nH]ncc2c1)c1nscc1NCc1ccncc1,
